Patent US10703796B2, “CD44v6-derived cyclic peptides for treating cancers and angiogenesis related diseases” (AMCURE GMBH, priority 2014, dated 2020)
Bridges are numbered along the chain shown (N, C = ends). Where no end group is shown, it is not given here. [ ]: non-standard residue; d: D form.

How the values were obtained:
Type in all cases: cell-based, human
[1] = test system: Erk; assay: HGF-induced activation of Erk in Panc1 cells (blot of activated Erk vs total Erk); conditions: peptide 30 nM for 5 min at 37° C. prior to HGF 10 ng/ml for 5 min
Procedure: (§1) Human adenocarcinoma cells, Panc1, were seeded at 2×10^5 cells per well in a 6-well plate. The day after seeding the cells, they were starved for 24 h. The following day, the cells were treated as indicated with either alga1 or D3alga1, a control peptide (N-A-A-A-E (SEQ ID NO: 37)) at a concentration of 30 nM for 5 min at 37° C. prior to induction with HGF (10 ng/ml) at 37° C. for 5 min. Results are given in FIG. 3 (A: alga1; B: D3alga1).
(§2) Human adenocarcinoma cells, Panc1, were seeded at 2×10^5 cells per well in a 6-well plate. The day after seeding, the cells were starved for 24 h. The following day, the cells were treated as indicated with either D1alga1, D2alga1 or D3alga1, a human CD44v6 14mer (h14mer) or control peptide (N-A-A-A-E (SEQ ID NO: 37)) at a concentration of 30 nM for 5 min at 37° C. prior to induction with HGF (10 ng/ml) at 37° C. for 5 min.

[2] = test system: c-Met; assay: HGF-induced activation of c-Met in Panc1 cells (blot of activated Met vs total Met); conditions: peptide 30 nM for 5 min at 37° C. prior to HGF 10 ng/ml for 5 min
Procedure: as §1, §2

[3] = test system: Panc 1 cells; assay: Wound healing assay, Example 9 (FIG. 15); conditions: 500 nM, HGF 100 ng/ml, photos up to 48 hours after induction
Procedure: Cell migration is connected to angiogenesis where cells need to migrate in order to form new blood vessels. Angiogenesis is related to cancer metastasis.
Panc 1 cells were seeded in 6-well plates at a concentration of 3×10^5 cells per well and were allowed to adhere and form a confluent monolayer. After a starving period of 24 hours, a scratch was inserted using a sterile pipette tip. Medium was aspirated to remove scratched cells and replaced by new starving medium. containing reagents as indicated at a concentration of […] tested for their blocking quality.
The following reagents were added to the medium at a concentration of 500 nM to test their blocking efficiency: D3-epga1, D4-epga1, D2-epal1, D3-epal1, D4-epal1, D3-alga1, D3-alga2, D4-alga2, D5-alga2, D6-alga3, Epga-1, Epal-1, Alga-2 and Alga-3. After 30 min incubation at 37° C., growth factor HGF was added to induce migration (HGF 100 ng/ml). Photos of the cells were taken immediately after scratch (Day 1), 24 hours (Day 2) and 48 hours (D3) after induction using a Canon Power Shot G12 digital camera.

Substance: D1alga1: cyclic CD44v6 5mer containing a D-amino acid at position 1 ([dK]RWHE; lactam N-5)
- activation of Erk [1]: blocks activation of c-Met and Erk
- activation of c-Met [2]: blocks activation of c-Met

Substance: D3-epga1: cyclic 5 mer, ep/ga cyclisation, D-amino acid at position 3 per naming scheme (FIG. 13) (KR[dW]HE; lactam 1-5)
- blocking of cell migration [3]: efficient in blocking cell migration

Substance: cy[εKRWHEα]γ] (K[dR]WHE; lactam 1-C; also: cyclised per cy[εKRWHEα]γ], linkage unclear) [D2-epal1]
- blocking of cell migration [3]: Most efficient blocking of cell migration

Substance: cy[αKGNRWHEγ] (KGNRW[dH]E; lactam N-7) [D6-alga3, cyclisation via N-terminal amino group of K and side chain carboxyl group of E, H is a D-amino acid]
- blocking of cell migration [3]: Most efficient blocking of cell migration

Substance: cy[αKNRWHEγ] (lactam N-6) [Alga-2]
- blocking of cell migration [3]: Most efficient blocking of cell migration

Substance: D2alga1: cyclic CD44v6 5mer containing a D-amino acid at position 2 (K[dR]WHE; lactam N-5)
- activation of Erk [1]: blocks activation of c-Met and Erk
- activation of c-Met [2]: blocks activation of c-Met
